{
  "source": "patent US11508483B2",
  "about": "“Method of identifying a subgroup of patients suffering from dcSSc which benefits from a treatment with sGC stimulators and sGC activators in a higher degree than a control group” (ADVERIO PHARMA GMBH, priority 2018, dated 2022)",
  "key": {"[1]": {"system": "patients with dcSSc", "test": "RISE-SSc clinical study: lung function, FVC % predicted", "type": "in vivo, human", "details": "for Difference in LSMeans with regard to FVC % predicted: Riociguat vs placebo, week 52", "excerpt": "Pulmonary physiologic measures, particularly FVC, have frequently been used as surrogate endpoints for SSc-ILD and IPF. […] Also in IPF measurable decline in FVC is correlated with mortality. […] The primary efficacy outcome measure was the change in mRSS from baseline to week 52. Key secondary efficacy measure was Combined Response Index for Systemic Sclerosis (CRISS)."}, "[2]": {"system": "patients with dcSSc", "test": "RISE-SSc clinical study: modified Rodnan skin score (mRSS)", "type": "in vivo, human", "design": "key to Difference in LSMeans with regard to mRSS: mRSS points (skin thickness score, max 51)", "details": "for Difference in LSMeans with regard to mRSS: Riociguat vs placebo, week 52; for mean change of mRSS for Riociguat compared to placebo: baseline to week 52", "excerpt": "The modified Rodnan skin score (mRSS) is a measure of skin thickness and is used as a primary or secondary outcome measure in clinical trials of systemic sclerosis. The maximum mRSS possible is 51. Standardization of the modified Rodnan skin score for use in clinical trials of systemic sclerosis is described in Khanna, D. et al., 2017b. […] The primary efficacy outcome measure was the change in mRSS from baseline to week 52. Key secondary efficacy measure was Combined Response Index for Systemic Sclerosis (CRISS)."}, "[3]": {"system": "patients with dcSSc", "test": "RISE-SSc clinical study: Health Assessment Questionnaire disability index (HAQ-DI)", "type": "in vivo, human", "details": "Riociguat vs placebo, week 52", "description": "The Health Assessment Questionnaire Disability Index (HAQ-DI) is a well-accepted measure of physical function for various rheumatic diseases, and it is the most widely employed and reported measure for assessing physical function in SSc. As a post hoc analysis in study 16277, the percentage of patients stratified by HAQ-DI categorized change was also performed. Clinically meaningful disease improvement was defined as a decrease in HAQ-DI of more than −0.21 from baseline to week 52; stabilization and/or disease worsening were defined as a change in HAQ-DI less than or equal to −0.21 from baseline to week 52. […] The primary efficacy outcome measure was the change in mRSS from baseline to week 52. Key secondary efficacy measure was Combined Response Index for Systemic Sclerosis (CRISS)."}, "[4]": {"system": "human dermal fibroblasts of SSc patients", "details": "in vitro; cited from earlier work"}, "[5]": {"system": "TGFβ-induced skin fibrosis", "details": "mouse, in vivo; cited from earlier work"}, "[6]": {"system": "systemic sclerosis patients", "details": "cited from earlier work"}, "[7]": {"details": "subgroup FVC % predicted at baseline 50-75"}, "[8]": {"details": "subgroup FVC % predicted at baseline >75"}, "[9]": {"details": "subgroup anti-RNA polymerase III autoantibodies negative"}, "[10]": {"details": "subgroup anti-RNA polymerase III autoantibodies positive"}},
  "data": [
    {"molecule": "COC(=O)N(C)c1c(N)nc(-c2nn(Cc3ccccc3F)c3ncccc23)nc1N", "note": "[Riociguat, methyl 4,6-diamino-2-[1-(2-fluorobenzyl)-1H-pyrazolo[3,4-b]pyridin-3-yl]-5-pyrimidinyl(methyl)carbamate]", "values": [
      {"measurement": "change of lung function (FVC % predicted) at week 52 compared to baseline", "setting": "[1]; Riociguat group, dcSSc patients positive for anti-RNA polymerase III autoantibodies", "value": "+1.2"},
      {"measurement": "Difference in LSMeans with regard to FVC % predicted", "setting": "[1]; [7]", "value": 9.2},
      {"measurement": "Difference in LSMeans with regard to FVC % predicted", "setting": "[1]; [8]", "value": "−1.3"},
      {"measurement": "Difference in LSMeans with regard to FVC % predicted", "setting": "[1]; subgroup ILD at baseline no", "value": "−1.7"},
      {"measurement": "Difference in LSMeans with regard to FVC % predicted", "setting": "[1]; subgroup ILD at baseline yes", "value": 5.1},
      {"measurement": "Difference in LSMeans with regard to FVC % predicted", "setting": "[1]; [9]", "value": "−0.9"},
      {"measurement": "Difference in LSMeans with regard to FVC % predicted", "setting": "[1]; [10]", "value": 3.5},
      {"measurement": "Difference in LSMeans with regard to FVC % predicted", "setting": "[1]; subgroup hsCRP >10 mg/L", "value": 2.4},
      {"measurement": "Difference in LSMeans with regard to FVC % predicted", "setting": "[1]; subgroup hsCRP ≤10 mg/L", "value": "−0.5"},
      {"measurement": "Difference in LSMeans with regard to mRSS", "setting": "[2]; [7]", "value": "−8.0"},
      {"measurement": "Difference in LSMeans with regard to mRSS", "setting": "[2]; [8]", "value": "−1.7"},
      {"measurement": "Difference in LSMeans with regard to mRSS", "setting": "[2]; [9]", "value": 0.3},
      {"measurement": "Difference in LSMeans with regard to mRSS", "setting": "[2]; [10]", "value": "−10.5"},
      {"measurement": "Difference in LSMeans with regard to mRSS", "setting": "[2]; subgroup hsCRP >3 mg/L", "value": "−5.8"},
      {"measurement": "Difference in LSMeans with regard to mRSS", "setting": "[2]; subgroup hsCRP >10 mg/L", "value": "−7.5"},
      {"measurement": "Difference in LSMeans with regard to mRSS", "setting": "[2]; subgroup hsCRP ≤3 mg/L", "value": 1.0},
      {"measurement": "Difference in LSMeans with regard to mRSS", "setting": "[2]; subgroup hsCRP ≤10 mg/L", "value": "−1.2"},
      {"measurement": "mean change of mRSS for Riociguat compared to placebo", "setting": "[2]; patients with FVC % predicted at baseline of 50-75", "value": "−7.9", "unit": "units"},
      {"measurement": "mean change of mRSS for Riociguat compared to placebo", "setting": "[2]; patients with hsCRP>10 mg/L", "value": "−7.5", "unit": "units"},
      {"measurement": "mean change of mRSS for Riociguat compared to placebo", "setting": "[2]; patients with hsCRP>3", "value": "−5.8", "unit": "units"},
      {"measurement": "mean change of mRSS for Riociguat compared to placebo", "setting": "[2]; patients ≥65 y of age", "value": "−6.7", "unit": "units"},
      {"measurement": "Difference in LSMeans with regard to HAQ-DI", "setting": "[3]; [7]", "value": "−0.22"},
      {"measurement": "Difference in LSMeans with regard to HAQ-DI", "setting": "[3]; [8]", "value": "−0.07"},
      {"measurement": "Difference in LSMeans with regard to HAQ-DI", "setting": "[3]; [9]", "value": 0.02},
      {"measurement": "Difference in LSMeans with regard to HAQ-DI", "setting": "[3]; [10]", "value": "−0.44"},
      {"measurement": "Difference in LSMeans with regard to HAQ-DI", "setting": "[3]; subgroup hsCRP >10 mg/L", "value": "−0.13"},
      {"measurement": "Difference in LSMeans with regard to HAQ-DI", "setting": "[3]; subgroup hsCRP ≤10 mg/L", "value": "−0.03"},
      {"measurement": "collagen production", "setting": "[4]", "value": "reduce collagen production"}
    ]},
    {"molecule": "Nc1nc(-c2nn(Cc3ccccc3F)c3ncccc23)ncc1C1CC1", "note": "[BAY 41-2272]", "values": [
      {"measurement": "progression of TGFβ-induced skin fibrosis", "setting": "[5]", "value": "prevented the progression"},
      {"measurement": "collagen production", "setting": "[4]", "value": "reduce collagen production"}
    ]},
    {"molecule": "Tocilizumab: monoclonal anti-IL-6 receptor-α antibody approved e.g. for the treatment of patients with rheumatoid arthritis", "values": [
      {"measurement": "skin score and FVC in placebo-treated patients who transitioned to tocilizumab", "setting": "[6]; open-label period", "value": "skin score improvement and FVC stabilization"},
      {"measurement": "influence of anti-RNA polymerase III autoantibody profile on the effect on change in mRSS or ppFVC", "setting": "[6]; week 48", "value": "little clinically meaningful influence"}
    ]}
  ]
}
